From US7632850B2, “Arylalkylcarbamate derivatives and production thereof” (Sanofi-aventis, priority 2003, dated 2009) come the findings set out here.

The target in series [1] is T1, FAAH (Fatty Acid Amide Hydrolase) (Mus musculus, UniProt O08914).
T1 construct: Membrane homogenates are prepared at the time of use by homogenizing the tissues in a Polytron; from tissue; host or cells: mouse brain (minus the cerebellum), membrane homogenate
T1 sequence (O08914 1-579): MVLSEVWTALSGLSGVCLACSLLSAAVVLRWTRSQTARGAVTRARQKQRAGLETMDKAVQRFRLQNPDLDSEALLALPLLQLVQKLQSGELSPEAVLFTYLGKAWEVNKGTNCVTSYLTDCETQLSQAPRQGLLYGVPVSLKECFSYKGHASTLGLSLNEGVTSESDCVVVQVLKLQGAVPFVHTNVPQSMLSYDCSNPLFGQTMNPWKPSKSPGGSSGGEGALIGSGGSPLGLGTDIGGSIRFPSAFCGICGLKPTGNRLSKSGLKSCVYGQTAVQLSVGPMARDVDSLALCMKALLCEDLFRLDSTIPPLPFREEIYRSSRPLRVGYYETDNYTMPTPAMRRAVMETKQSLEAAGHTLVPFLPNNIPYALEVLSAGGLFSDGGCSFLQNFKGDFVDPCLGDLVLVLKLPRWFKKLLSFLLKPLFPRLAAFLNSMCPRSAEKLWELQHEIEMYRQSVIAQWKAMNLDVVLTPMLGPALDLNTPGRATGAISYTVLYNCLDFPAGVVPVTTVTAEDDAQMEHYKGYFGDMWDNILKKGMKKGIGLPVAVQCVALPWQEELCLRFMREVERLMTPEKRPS
Kind of series: radioenzymatic assay of anandamide hydrolysis by FAAH (mouse brain membrane homogenates). The class given is biochemical. Conditions: concentration inhibiting by 50% the control enzyme activity of FAAH; mouse brain membranes, 10 μM anandamide, 15 minutes at 25° C. Here is the method:
The compounds of the invention were subjected to pharmacological tests permitting determination of their inhibitory effect on the enzyme FAAH (Fatty Acid Amide Hydrolase).
Accordingly, mouse brains (minus the cerebellum) are removed and stored at −80° C. Membrane homogenates are prepared at the time of use by homogenizing the tissues in a Polytron in a 10 mM Tris HCl buffer (pH 8.0) containing 150 mM NaCl and 1 mM EDTA. The enzyme reaction is subsequently conducted in 70 μl of buffer, containing bovine serum albumin without fatty acids (1 mg/ml). In succession, the test compounds, at various concentrations, anandamide [ethanolamine 1-^3H] (specific activity: 15-20 Ci/mmol) diluted to 10 μM with cold anandamide, and the membrane preparation (400 μg of frozen tissue per assay) are added. After 15 minutes at 25° C., the enzyme reaction is terminated by adding 140 μl of chloroform/methanol. (2:1). The mixture is stirred for 10 minutes then centrifuged for 15 minutes at 3500 g. An aliquot (30 μl) of the aqueous phase, containing the ethanolamine [1-^3H], is counted by liquid scintillation.

A further series has as its system male OF1 mice. Kind of series: analgesia test: abdominal stretches induced by PBQ (phenylbenzoquinone) i.p. The class given is in vivo. The procedure:
The in vivo activity of the compounds of the invention was evaluated in an analgesia test. Accordingly, intraperitoneal (i.p.) administration of PBQ (phenylbenzoquinone, 2 mg/kg in a 0.9% sodium chloride solution containing 5% of ethanol) to male OF1 mice weighing 25 to 30 g causes abdominal stretches, on average 30 twists or contractions during the period from 5 to 15 minutes after injection. The test compounds are administered orally in suspension in Tween 80 at 0.5%, 60 minutes or 120 minutes before the administration of PBQ.

Consider `CNC(=O)COC(=O)NCCc1ccc(Oc2ccccc2)cc1` [Compound 194], for which the melting point (in general, the temperature of the solid-liquid transition) fell in the range of 111 to 113 °C. In series [1], the midpoint of inhibition, the IC50, lay at 142 nM. Further, the “Reduction in number of stretches (%)” value in the series with male OF1 mice ((b) 3 mg/kg p.o. at 1 hour) was −55% (b).

On to `CNC(=O)COC(=O)NCCc1ccc(-c2ccc(Cl)cc2Cl)cc1` [Compound 178], for which the melting point lay in the range of 147 to 149 °C. In addition, the IC50 (usually the midpoint of a concentration-inhibition curve) in series [1] came out at 140 nM. The “Reduction in number of stretches (%)” value in the series with male OF1 mice ((b) 3 mg/kg p.o. at 1 hour) is listed as −53% (b).

In turn, `CNC(=O)COC(=O)NCCc1ccc(-c2ccc(F)c(Cl)c2)cc1` [Compound 192, 2-(methylamino)-2-oxoethyl 2-(3′-chloro-4′-fluoro-1,1′-biphenyl-4-yl)ethylcarbamate] returned a melting point of 178 to 180 °C. Further, the IC50 in series [1] was determined as 102 nM. Also, in the series with male OF1 mice ((a) 1 mg/kg p.o. at 2 hours), the “Reduction in number of stretches (%)” value was −43% (a).

Turning to `CNC(=O)COC(=O)NCCc1ccc(-c2ccc(F)cc2)cc1F` [Compound 141, 2-(methylamino)-2-oxoethyl 2-(3,4′-difluoro-1,1′biphenyl-4-yl)ethylcarbamate], the melting point lay within 164 to 166 °C.

With `NC(=O)COC(=O)NCC1(c2ccc(-c3ccc(F)cc3)cc2)CC1` [Compound 145, 2-amino-2-oxoethyl 1-(4′-fluoro-1,1′-biphenyl-4-yl)cyclopropylmethylcarbamate], the melting point was 139 to 141 °C.

In the case of `CNC(=O)COC(=O)NCc1ccc(-c2ccccn2)cc1` [Compound 81, 2-(methylamino)-2-oxoethyl 4-pyridin-2-ylbenzylcarbamate], the melting point was 151 to 153 °C.

In turn, `CNC(=O)COC(=O)NCc1ccc(-c2ccc(F)cc2)cc1Cl` [Compound 9, 2-(methylamino)-2-oxoethyl (3-chloro-4′-fluoro-1,1′-biphenyl-4-yl)methylcarbamate] returned a melting point of 170 to 172 °C.

`CNC(=O)COC(=O)NCCc1ccc(-c2ccc(Cl)cc2)cc1` [Compound 150, 2-(methylamino)-2-oxoethyl 2-(4′-chloro-1,1′-biphenyl-4-yl)ethylcarbamate]: the melting point fell in the range of 186 to 188 °C. The same molecule displayed a half-maximal inhibitory concentration (IC50) in series [1] of 63 nM. Moreover, the “Reduction in number of stretches (%)” value in the series with male OF1 mice ((b) 3 mg/kg p.o. at 1 hour) is −57% (b).

For the molecule `NC(=O)COC(=O)NCc1ccc(-n2cnc(-c3ccccc3)c2)cc1` [Compound 84, 2-amino-2-oxoethyl [4-(4-phenyl-1H-imidazol-1-yl)phenyl]methylcarbamate], the melting point was in the range of 200 to 203 °C.

Molecule `CNC(=O)COC(=O)NCCc1ccc(-c2cccc(C#N)c2)cc1` [Compound 171, 2-(methylamino)-2-oxoethyl 2-(3′-cyano-1,1′-biphenyl-4-yl)ethylcarbamate] registered a melting point of 157 to 159 °C. This molecule showed an IC50 in series [1] of 108 nM. In addition, in the series on male OF1 mice ((a) 1 mg/kg p.o. at 2 hours), the “Reduction in number of stretches (%)” value is −51% (a).

In turn, `CNC(=O)COC(=O)NCCc1cccc(Oc2ccccc2)c1` [Compound 197, 2-(methylamino)-2-oxoethyl 2-(3-phenyloxyphenyl)ethylcarbamate] showed a melting point of 82 to 84 °C.

In the case of `CNC(=O)COC(=O)NCc1ccc(-c2ccccc2)cc1` [Compound 1, 2-(methylamino)-2-oxoethyl 1,1′-biphenyl-4-ylmethylcarbamate], the melting point is 189 to 190 °C.

For `NC(=O)COC(=O)NCCc1ccc(-n2ccc3cccnc32)cc1` [Compound 224], the melting point lay within 110 to 112 °C.

Molecule `CNC(=O)COC(=O)NCCc1ccc(C(F)(F)F)cc1` [Compound 125, 2-(methylamino)-2-oxoethyl 2-[4-(trifluoromethyl)phenyl]ethylcarbamate] showed a melting point of 140 to 142 °C.

As for `CNC(=O)COC(=O)NCCc1ccc(Oc2ccc(Cl)cc2)cc1` [Compound 196, 2-(methylamino)-2-oxoethyl 2-{4-[(4-chlorophenyl)oxy]phenyl}ethylcarbamate], the melting point fell in the range of 133 to 135 °C.
